Experiment [1] has as its target T1, WT ATP8B1 fragment (residues 803 to 880) (Homo sapiens, UniProt O43520, K824A/R832A/R833A/R835A).
T1 sequence (O43520 803-880 K824A/R832A/R833A/R835A): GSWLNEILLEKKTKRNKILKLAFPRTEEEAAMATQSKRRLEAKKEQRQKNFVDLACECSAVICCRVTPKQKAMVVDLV
Kind of experiment: surface plasmon resonance, protein covalently coupled on CM5 chip. The conditions noted are these: PIP2 injected at different concentrations; acyl chains not told. The class given is binding. On the technique in general: SPR reads the build-up and loss of mass on a sensor chip optically.

For experiment [2], the target named is T2, WT ATP8B1 fragment (residues 803 to 880) (Homo sapiens, UniProt O43520).
T2 sequence (O43520 803-880): T1 sequence (O43520 803-880 K824A/R832A/R833A/R835A) with A22K, A30R, A31R, A33R
Described as above. Format: binding. The conditions noted are these: PIP2 injected at different concentrations; acyl chains not told.

Experiment [3] has as its target T3, human ATP8B1 (full-length, N-terminal GST-tagged) (Homo sapiens, UniProt O43520).
T3 sequence (O43520 1-1251): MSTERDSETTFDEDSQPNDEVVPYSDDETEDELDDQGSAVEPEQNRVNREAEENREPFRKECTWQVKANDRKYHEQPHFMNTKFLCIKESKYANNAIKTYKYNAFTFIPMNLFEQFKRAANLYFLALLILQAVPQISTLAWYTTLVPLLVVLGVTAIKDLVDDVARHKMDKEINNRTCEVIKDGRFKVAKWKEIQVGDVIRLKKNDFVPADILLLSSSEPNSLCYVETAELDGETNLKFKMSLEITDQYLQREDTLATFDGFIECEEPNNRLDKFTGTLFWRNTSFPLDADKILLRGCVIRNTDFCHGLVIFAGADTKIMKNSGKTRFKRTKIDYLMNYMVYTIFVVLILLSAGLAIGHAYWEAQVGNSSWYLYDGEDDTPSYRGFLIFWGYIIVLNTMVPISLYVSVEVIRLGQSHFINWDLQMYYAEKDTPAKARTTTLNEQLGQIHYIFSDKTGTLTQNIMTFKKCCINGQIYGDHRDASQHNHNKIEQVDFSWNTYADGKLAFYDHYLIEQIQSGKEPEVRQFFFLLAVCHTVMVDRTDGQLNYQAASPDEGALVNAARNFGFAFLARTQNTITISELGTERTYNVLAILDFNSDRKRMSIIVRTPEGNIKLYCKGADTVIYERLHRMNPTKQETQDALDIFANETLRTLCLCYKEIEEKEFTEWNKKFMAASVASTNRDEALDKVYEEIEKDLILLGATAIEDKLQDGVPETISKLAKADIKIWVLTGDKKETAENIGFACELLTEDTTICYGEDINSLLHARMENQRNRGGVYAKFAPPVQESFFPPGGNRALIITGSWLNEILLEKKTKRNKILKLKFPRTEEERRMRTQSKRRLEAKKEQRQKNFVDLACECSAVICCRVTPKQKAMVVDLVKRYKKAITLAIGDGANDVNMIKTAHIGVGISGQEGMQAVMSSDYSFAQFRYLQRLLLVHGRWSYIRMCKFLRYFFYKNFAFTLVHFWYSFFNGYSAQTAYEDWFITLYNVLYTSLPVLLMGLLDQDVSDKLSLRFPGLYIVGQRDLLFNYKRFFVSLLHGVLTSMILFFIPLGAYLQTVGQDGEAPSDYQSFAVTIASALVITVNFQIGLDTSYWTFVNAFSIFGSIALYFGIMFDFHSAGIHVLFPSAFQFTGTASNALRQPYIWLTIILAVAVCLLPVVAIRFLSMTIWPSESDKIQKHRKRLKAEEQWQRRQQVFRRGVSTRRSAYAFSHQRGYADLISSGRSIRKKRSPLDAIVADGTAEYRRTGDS
Kind of experiment: ATPase activity stimulated by phospholipid. Format: biochemical. The conditions noted are these: activation of ATPase activity; acyl chains not told.

Numbering of substitutions follows the chain as printed.

Results on one substance are retold here after paper PMC12146700 (Proceedings of the National Academy of Sciences of the …, 2025).

For the substance PIP2, the Kd (as a rule, the constant that tells how readily two partners part at equilibrium) in experiment [1] is around 63.6 µM; in experiment [2], around 11.5 µM. The EC50 – broadly, the concentration giving half of the maximal effect – in experiment [3] turned out to be 232 ± 35.2 µM.
